In one assay the target is p38α (Homo sapiens, UniProt Q16539). Briefly: p38 in-vitro HTRF enzyme assay. Format: biochemical. The following applies: IC50 value ranges. A digest of the protocol:
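Activated recombinant human p38α with ATP and 100 nM GST-ATF2-Avitag, 1 h at RT in Tris pH 7.5/MgCl2 buffer; compound 10-point 3-fold series from about 1 μM final. HTRF 665/620 nm ratio; IC50 from 4-parameter fit, Ki via Cheng-Prusoff with experimental ATP Km.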
On the technique in general: TR-FRET usually uses a lanthanide donor and a delayed reading to cut background.

Another assay concerns THP1 cells. Briefly: Lipopolysaccharide-activated THP1 cell TNF production assay. Format: cell-based, human. The settings on record: Homo sapiens, THP-1; LPS-induced TNF-α production in THP1 cells. A digest of the protocol:
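THP1 cells at 1E6/mL were stimulated with LPS (1 μg/mL prepared stock) alongside 3-fold serially diluted compound for 3 h at 37 °C. Secreted TNF-α was quantified by electrochemiluminescence sandwich immunoassay. Percent of DMSO control was fitted to a 4-parameter logistic equation.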

A further assay has as its system monocytes. Briefly: Lipopolysaccharide-activated monocyte TNF production assay (LPS induced TNF release). Format: cell-based, human. The following applies: Homo sapiens, Monocyte; LPS induced TNF release from monocytes; read-out: LPS induced TNFa. Summed up:
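Adherent monocytes from human PBMCs were pretreated with compound 60 min, then stimulated with E. coli LPS (30 ng/mL stock added) for 4 h at 37 °C. Supernatant TNF-α measured by sandwich ELISA; concentration giving 50% TNF reduction derived by polynomial fit.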

Sequence of p38α (Q16539 whole entry): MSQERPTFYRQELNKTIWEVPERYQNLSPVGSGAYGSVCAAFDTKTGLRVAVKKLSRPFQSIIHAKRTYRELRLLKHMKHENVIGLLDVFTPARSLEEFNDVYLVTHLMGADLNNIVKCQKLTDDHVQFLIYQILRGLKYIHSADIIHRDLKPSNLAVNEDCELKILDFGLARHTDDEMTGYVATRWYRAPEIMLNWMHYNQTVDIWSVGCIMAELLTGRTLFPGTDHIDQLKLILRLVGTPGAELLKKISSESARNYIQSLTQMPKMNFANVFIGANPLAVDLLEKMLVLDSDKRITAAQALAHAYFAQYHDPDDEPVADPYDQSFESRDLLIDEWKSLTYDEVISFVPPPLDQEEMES

Regarding `Cc1ccc(C(N)=O)cc1-c1ccn2c(-c3ccccc3Cl)nnc2c1` [Example 44, 3-(3-(2-chlorophenyl)[1,2,4]triazolo[4,3-a]pyridin-7-yl)-4-methylbenzamide], the IC50 against p38α was under 25 nM; in the assay on THP1 cells it was 25 to 100 nM; in the assay with monocytes, 100 to 250 nM.
The corresponding values for `Cc1ccc(C(=O)NC2CC2)cc1-c1ccn2c(-c3ccccc3C)nnc2c1` [Example 32, N-cyclopropyl-4-methyl-3-(3-(2-methylphenyl)[1,2,4]triazolo[4,3-a]pyridin-7-yl)benzamide] are under 25 nM, 25 to 100 nM and 100 to 250 nM.
The corresponding values for `Cc1ccc(C(=O)NC2CC2)cc1-c1ccn2c(-c3cccnc3C)nnc2c1` [Example 34, N-cyclopropyl-4-methyl-3-(3-(2-methyl-3-pyridinyl)[1,2,4]triazolo[4,3-a]pyridin-7-yl)benzamide] are 25 to 100 nM, 25 to 100 nM and 100 to 250 nM.
Regarding `Cc1ccc(C(=O)NC2CC2)cc1-c1ccn2c(-c3ccc(F)cc3Cl)nnc2c1` [Example 42, 3-(3-(2-chloro-4-fluorophenyl)[1,2,4]triazolo[4,3-a]pyridin-7-yl)-N-cyclopropyl-4-methylbenzamide], the values for the IC50 on p38α, with THP1 cells and in the assay with monocytes were under 25 nM, 25 to 100 nM and 100 to 250 nM, respectively.
As for `Cc1ccc(C(=O)NC2CC2)cc1-c1ccn2c(-c3cccc(F)c3Cl)nnc2c1` [Example 39, 3-(3-(2-chloro-3-fluorophenyl)[1,2,4]triazolo[4,3-a]pyridin-7-yl)-N-cyclopropyl-4-methylbenzamide], the IC50 at p38α is under 25 nM; with THP1 cells, 25 to 100 nM; in the assay on monocytes, 100 to 250 nM.
The like results for `Cc1ccc(C(=O)NC2CC2)cc1-c1ccn2c(-c3ccccc3Cl)nnc2c1` [Example 10, 3-(3-(2-chlorophenyl)[1,2,4]triazolo[4,3-a]pyridin-7-yl)-N-cyclopropyl-4-methylbenzamide] were, in that order, under 25 nM, under 25 nM and 25 to 100 nM.
The corresponding values for `Cc1ccc(C(=O)Nc2ccnn2C)cc1-c1ccn2c(-c3ccc(S(C)(=O)=O)cc3)nnc2c1` [Example 14, 4-methyl-N-(1-methyl-1H-pyrazol-5-yl)-3-(3-(4-(methylsulfonyl)phenyl)[1,2,4]triazolo[4,3-a]pyridin-7-yl)benzamide] are 25 to 100 nM, 1000 to 5000 nM and 1000 to 5000 nM.
The like results for `Cc1ccc(C(=O)Nc2ccnn2C)cc1-c1ccn2c(-c3cc(F)c(F)cc3Cl)nnc2c1` [Example 49, 3-(3-(2-chloro-4,5-difluorophenyl)[1,2,4]triazolo[4,3-a]pyridin-7-yl)-4-methyl-N-(1-methyl-1H-pyrazol-5-yl)benzamide] were, in that order, under 25 nM, 25 to 100 nM and 25 to 100 nM.
Regarding `Cc1ccc(C(=O)NC2CC2)cc1-c1ccn2c(-c3sccc3Cl)nnc2c1` [Example 55, 3-(3-(3-chloro-2-thienyl)[1,2,4]triazolo[4,3-a]pyridin-7-yl)-N-cyclopropyl-4-methylbenzamide], the IC50 is under 25 nM against p38α, under 25 nM with THP1 cells and 25 to 100 nM in the assay on monocytes.
Regarding `Cc1ccc(C(=O)Nc2ccnn2C)cc1-c1ccn2c(-c3cnccc3C(F)(F)F)ncc2c1` [Example 4, 4-methyl-N-(1-methyl-1H-pyrazol-5-yl)-3-(3-(4-(trifluoromethyl)-3-pyridinyl)imidazo[1,5-a]pyridin-7-yl)benzamide], the IC50 was under 25 nM against p38α, 25 to 100 nM in the assay on THP1 cells and 25 to 100 nM with monocytes.

These data come from patent US7700593B2, “Imidazo- and triazolo-pyridine compounds and methods of use thereof” (Amgen Inc., priority 2006, dated 2010).
